In a melting point compilation (Tetko et al.; mined from patent text by program, amines drawn as free bases though some values may be those of a salt):

SMILES | melting point [°C]
CNCC1Cc2cc(-c3ccccc3)cc(-c3ccc(Cl)cc3)c2O1 (centres undefined) | > 250
CCOC(=O)NC(=O)c1nn(-c2cc(Cl)c(C(C)(C)C#N)c(Cl)c2)c(=O)[nH]c1=O | 110
CCOC(=O)C(OCC)C(=O)Nc1ccc(Br)cc1 (centres undefined) | 62 to 64
CN1C(=O)C(C2=COc3cc4ccccc4cc3O2)=C(c2cn(C(=O)OC(C)(C)C)c3ccccc23)C1=O | 158
Cc1nc(N2CCN(Cc3cccc(C(F)(F)F)c3)C2=O)sc1C(=O)NCc1cccnc1 | 175 to 176
CCc1noc(-c2ncn(-c3cccc(OCc4ccccc4)c3)c2COC)n1 | 63 to 64
Cc1ccc(NC(=S)NCc2ccc3c(c2)CN(C2CCC(=O)NC2=O)C3=O)cc1C(F)(F)F (centres undefined) | 238 to 240
Cc1[nH]c(C(=O)NCC(=O)O)c(C)c1-c1nc2ccc(C(=O)c3ccccc3)cc2[nH]1 | 274 to 276
COc1nnc2n1C=Cc1ccccc1C2C (centres undefined) | 101 to 102
CCCCCCC1=C(O)C(=O)CO1 | 51 to 52
CC(Cl)c1ccc(-c2ccc(Cl)cc2)cc1 (centres undefined) | 100 to 102
COC(=O)c1ccc(=O)n(CCNC(=O)c2cnc3ccccc3c2)c1 | 174 to 175
CNC(=O)N(c1ccccc1)c1ncc(C)n1-c1ccccc1 | 147
Cc1cc(CSCCNc2nc(NC(=O)Nc3ccccc3)nn2C)oc1CN(C)C | 166 to 167
CNC(=O)c1ccc(C)c(-n2c(C)cc(OCc3ccccc3CNC(=O)Nc3cc(C(C)(C)C)nn3-c3cccc(OCCO)c3)c(Cl)c2=O)c1 | 168 to 170
Cc1cccc(NC(=O)Nc2c(-c3ccccc3)c3cc(Cl)ccc3c(=O)n2C)c1 | > 300
CC(C)COC(=O)C(=O)c1csc(N)n1 | 105 to 108
CN(C)CCCN(C=O)C1CCC2C3CCc4ccccc4C3CCC21C (centres undefined) | 123 to 125
CSc1nc2cncnc2n1Cc1ccc(F)cc1 | 167
COc1ccc(-c2ccc(C(C)=O)cc2)cc1OC1CCCC1 | 117 to 118

SMILES | melting point [°C]
O=C(Nc1ccc(-n2nc(C(F)(F)F)cc2C(F)(F)F)cc1F)c1ccc(F)cc1F | 66 to 67
Cc1cc(Oc2ccccc2C(F)(F)F)nn1C(=O)Nc1ccccc1 | 87 to 89
Cc1ccc(C(=O)Nc2ccc(CN(C)C)c(C(F)(F)F)c2)cc1-c1ccc2cnncc2c1 | 156 to 157
COc1cc(Nc2nn(Cc3ccccc3)c(=O)c3ccccc23)cc(OC)c1OC | 206 to 207
Cc1nc[nH]c(=O)c1Cc1ccccc1 | 140 to 142
N#Cc1cc(Br)cc(CO)c1 | 108 to 109
O=C(O)C1Cc2c(ncn2CCC2CCCCC2)CN1C(=O)C(c1ccccc1)c1ccccc1 (centres undefined) | 137 to 140
CC(=Cc1ccc(F)c(F)c1)C(=O)O | 122 to 125
Cc1ccc(CC(C(=O)c2ccccc2)N2CCCCC2)cc1 (centres undefined) | 71 to 72
NS(=O)(=O)c1ccc(CCN2C(=O)c3ccccc3C2c2ccccc2)cc1 (centres undefined) | 218
CS(=O)CCNC(=O)c1cccc(-c2ccc3c(c2)C(Oc2ccc(Cl)cc2Cl)CC3)c1 (centres undefined) | 149 to 150
CC(C)(C)OC(=O)NNC(=N)C(Cl)(Cl)Cl | 150
O=C(NCc1ccccc1)C12CC3CC(CC(C3)C1)C2 | 170 to 172
COc1ccc2cnc3c(c2c1)NC(=O)CC3 | 254 to 256
C#CCN(C)c1nc(C(=O)N(C)C)cs1 | 99 to 100
C=C1CC2C(CCC3(C)C2CCC3(OC(=O)CCCCC)C(C)=O)C2(COC(C)=O)CCC(=O)C=C12 (centres undefined) | 111 to 112
CC(C)(C)c1cc(OCc2ccccc2C(=O)Nc2nnn[nH]2)cc(C(C)(C)C)c1 | 251 to 254
Cc1c(OCc2ccccc2)c(=O)ccn1CCO | 192 to 193
CCOC(=O)c1cn(C2CC2)c2nc(N3CCN(C(=O)OCC)CC3)c(F)cc2c1=O | 184 to 186
